Experimental data published in US8685919B2 (Zealand Pharma A/S, priority 2008, dated 2014).
“Also recorded” adds a separate entry of the source. Like-named read-outs stand apart in the source and are kept apart here. Each block holds one molecule with its values, some of them ahead of it. Peptide text beside a SMILES is read from it.

Tests used:
human GLP-1-R = target: T1, human GLP-1-R (Homo sapiens, UniProt P43220); assay: GLP-1-receptor efficacy assay (cAMP in HEK293 cells); type: cell-based
T1 construct: expressed in transfected cells
T1 sequence (P43220 24-463): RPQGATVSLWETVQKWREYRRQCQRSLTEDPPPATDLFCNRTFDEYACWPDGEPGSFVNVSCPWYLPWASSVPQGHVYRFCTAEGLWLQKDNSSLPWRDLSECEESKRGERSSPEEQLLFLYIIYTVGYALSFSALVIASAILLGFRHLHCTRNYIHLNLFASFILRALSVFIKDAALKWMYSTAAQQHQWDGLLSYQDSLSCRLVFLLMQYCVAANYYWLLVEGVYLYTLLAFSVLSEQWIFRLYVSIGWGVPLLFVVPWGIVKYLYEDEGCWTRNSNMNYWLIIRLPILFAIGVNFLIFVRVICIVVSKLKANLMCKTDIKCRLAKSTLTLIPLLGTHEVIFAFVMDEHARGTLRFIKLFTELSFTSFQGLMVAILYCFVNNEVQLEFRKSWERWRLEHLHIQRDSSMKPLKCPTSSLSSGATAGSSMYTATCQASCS
Description: The 5′-end primers additionally encoded a near Kozak consensus sequence to ensure efficient translation.
48 hr after transfection cells were seeded for limited dilution cloning and selected with 1 mg/ml G418 in the culture medium.
On the day of analysis, growth medium was removed and the cells washed once with 200 μl Tyrode buffer. Cells were incubated in 100 μl Tyrode buffer containing increasing concentrations of test peptides, 100 μM IBMX, and 6 mM glucose for 15 min at 37° C. The reaction was stopped by addition of 25 μl 0.5 M HCl and incubated on ice for 60 min. The cAMP content was estimated using the FlashPlate® cAMP kit from Perkin-Elmer.

[1] = tested on: primary rat adipocyte cultures; type: cell-based
Description: Adipocytes were isolated from epididymal fat dissected from normal young adult Sprague-Dawley rats. The fat lumps were minced, incubated and shaken (220 rpm) with collagenase (1 mg/ml) in Krebs-Ringer buffer containing 4% BSA (KRB-BSA) for 60 minutes at 37° C. The suspension was filtered through a nylon filter (160 μm pore size) and the filtrate centrifuged at 200×g for 3 min. The subjacent medium beneath the upper floating layer of adipocytes was removed with a Pasteur-pipette. The adipocytes were washed 3 times in KRB-BSA buffer by re-suspension and centrifugation. The adipocytes were re-suspended in KRB-BSA, mixed, incubated in and shaken with test compounds in 96-deep well plates (50,000 cells/well) in a total volume of 1 ml at 37° C. for 60 min. The plates were placed on ice for at least 10 min after incubation followed by centrifugation at 200×g for 3 min. 300 μl of the buffer beneath the adipocyte layer were collected in a 96-deep well plate. This process was repeated two more times and the 3 extracts collected from each culture pooled together.

[2] = tested on: diet induced obese (DIO) mice; assay: 28 day treatment of DIO mice: plasma cholesterols (cholesterol, HDL, LDL); type: in vivo; settings: DIO mice treated 4 weeks b.i.d., compared to vehicle
Description: Four weeks before drug treatments, C57BI/6 male mice (7 weeks)) (N=10-12 animals in each group) were put on high fat diet (HFD) and their day-night cycle reversed with lights On/Off at 2000/0800 hour. Experimental animals were conditioned to treatment by daily injections (s.c.) of 0.1 ml vehicle and acclimatized to handling by weighing them twice a week one week before start of drug administrations. […] A non-obese control group maintained on regular chow was treated with vehicle in the same treatment regime as the DIO groups. Body weights were recorded daily and used to administer the body weight-corrected doses of peptide throughout the study. Animals were fasted overnight before sacrifice. An eye blood sample (0.6 ml EDTA) was obtained the following morning immediately before cervical dislocation. Blood plasma samples were stored at −80° C. until analyzed for cholesterol, HDL and LDL using commercially available kits. Body weight gains throughout the treatment period were calculated for each animal by subtracting its weight at the initiation of treatment.
The effects of treatment on body weight gain and cholesterols were assessed by 2-way ANOVA with repeated measures and Bonferoni post-hoc analyses, using GraphPad Prism version 4. Differences were considered significant at the p<0.05 level.

db/db mice = assay: Oral glucose tolerance test (OGTT) in db/db mice; type: in vivo; settings: 45 nmol/kg i.p.
Description: Db/db mice were fasted overnight and an initial blood sample (fasting blood glucose level) taken just before administration (i.p.) of vehicle (Acetate buffer, 20 mM acetic acid, 250 mM mannitol, pH 5.0) or the test compound ZP2669 (SEQ ID NO: 4) (45 nmol/kg in acetate buffer). The animals were kept fasted during the experiment to prevent confounding food intake. Fifteen minutes later an oral dose of glucose (1 g/kg in 5 ml/kg) was given and BG levels were measured at t=30 min, t=60 min, t=120 min and t=240 min.
Difference from baseline (t=0) was calculated for each time point and AUC0-240 min values were determined. Statistical analyses of AUC values by one-way ANOVA and Dunnetts post-hoc analyses were performed with GraphPad Prism version 4. Differences were considered significant at the p<0.05 level.

C57BI/6 mice = assay: Food intake in normal mice; type: in vivo; settings: fasted mice, s.c.; PYY3-36 30 nmol/kg, glucagon 500 nmol/kg, ZP2669 500 nmol/kg
Source text: Differences were considered significant at the p<0.05 level.

[3] = tested on: diet induced obese (DIO) mice; assay: 28 day treatment of diet induced obese (DIO) mice: body weight gain; type: in vivo
Description: Four weeks before drug treatments, C57BI/6 male mice (7 weeks)) (N=10-12 animals in each group) were put on high fat diet (HFD) and their day-night cycle reversed with lights On/Off at 2000/0800 hour. Experimental animals were conditioned to treatment by daily injections (s.c.) of 0.1 ml vehicle and acclimatized to handling by weighing them twice a week one week before start of drug administrations. The day before start of experiment, mice were stratified into groups with similar body weight (BW) and the next day groups of stratified mice were treated (b.i.d.; s.c.) with ZP2669 (SEQ ID NO: 4) (500 nmol/kg) or vehicle (Acetate-buffer). ZP2669 (SEQ ID NO: 4) was given in isotonic acetate buffer (pH 4.8; 2.5 μl/g BW). […] Body weights were recorded daily and used to administer the body weight-corrected doses of peptide throughout the study. […] Blood plasma samples were stored at −80° C. until analyzed for cholesterol, HDL and LDL using commercially available kits. Body weight gains throughout the treatment period were calculated for each animal by subtracting its weight at the initiation of treatment.
The effects of treatment on body weight gain and cholesterols were assessed by 2-way ANOVA with repeated measures and Bonferoni post-hoc analyses, using GraphPad Prism version 4. […]

EC50 (human GLP-1-R; read-out: GLP-1R EC50 (nM), crude peptides marked *): 21 nM
Molecule: CC(C)C[C@H](NC(=O)[C@H](CC(C)C)NC(=O)[C@H](Cc1c[nH]c2ccccc12)NC(=O)[C@H](CCC(N)=O)NC(=O)[C@@H](NC(=O)[C@H](Cc1ccccc1)NC(=O)[C@H](CC(=O)O)NC(=O)[C@H](Cc1c[nH]cn1)NC(=O)[C@H](C)NC(=O)[C@H](C)NC(=O)[C@H](CCCCN)NC(=O)[C@H](CO)NC(=O)[C@H](CC(=O)O)NC(=O)[C@H](CC(C)C)NC(=O)[C@H](Cc1ccc(O)cc1)NC(=O)[C@H](CCCCN)NC(=O)[C@H](CO)NC(=O)[C@H](Cc1ccc(O)cc1)NC(=O)[C@H](CC(=O)O)NC(=O)[C@H](CO)NC(=O)[C@@H](NC(=O)[C@H](Cc1ccccc1)NC(=O)[C@@H](NC(=O)CNC(=O)[C@H](CCC(N)=O)NC(=O)[C@H](CO)NC(=O)[C@@H](N)Cc1c[nH]cn1)[C@@H](C)O)[C@@H](C)O)C(C)C)C(=O)N[C@@H](CCCNC(=N)N)C(=O)N[C@@H](C)C(N)=O [Compound L006-0172] (H-HSQGTFTSDYSKYLDSKAAHDFVQWLLRA-NH2)

EC50 [1]: 0.75 nM
Molecule: CSCC[C@H](NC(=O)[C@H](CC(C)C)NC(=O)[C@H](Cc1c[nH]c2ccccc12)NC(=O)[C@H](CCC(N)=O)NC(=O)[C@@H](NC(=O)[C@H](Cc1ccccc1)NC(=O)[C@H](CC(=O)O)NC(=O)[C@H](CCC(N)=O)NC(=O)[C@H](C)NC(=O)[C@H](C)NC(=O)[C@H](CCCCN)NC(=O)[C@H](CO)NC(=O)[C@H](CC(=O)O)NC(=O)[C@H](CC(C)C)NC(=O)[C@H](Cc1ccc(O)cc1)NC(=O)[C@H](CCCCN)NC(=O)[C@H](CO)NC(=O)[C@H](Cc1ccc(O)cc1)NC(=O)[C@H](CC(=O)O)NC(=O)[C@H](CO)NC(=O)[C@@H](NC(=O)[C@H](Cc1ccccc1)NC(=O)[C@@H](NC(=O)CNC(=O)[C@H](CCC(N)=O)NC(=O)[C@H](CO)NC(=O)[C@@H](N)Cc1c[nH]cn1)[C@@H](C)O)[C@@H](C)O)C(C)C)C(=O)N[C@@H](CC(N)=O)C(=O)N[C@H](C(N)=O)[C@@H](C)O [ZP2667] (H-HSQGTFTSDYSKYLDSKAAQDFVQWLMNT-NH2)
Lipolysis potency relative to OXM ([1]; primary adipocyte cultures): 240 times
Lipolysis potency relative to glucagon ([1]; primary adipocyte cultures): 8 times

EC50 (human GLP-1-R; HEK293 cells expressing human GLP-1-R, cAMP, 15 min at 37° C., read-out: GLP-1R EC50): 0.08 nM
EC50 [1]: 101 nM
Molecule: CC(C)C[C@H](NC(=O)[C@H](CCCCN)NC(=O)[C@H](CC(C)C)NC(=O)[C@H](Cc1c[nH]c2ccccc12)NC(=O)[C@H](CCCNC(=N)N)NC(=O)[C@@H](NC(=O)[C@H](Cc1ccccc1)NC(=O)[C@H](CC(=O)O)NC(=O)[C@H](CCCNC(=N)N)NC(=O)[C@H](C)NC(=O)[C@H](C)NC(=O)[C@H](CCCCN)NC(=O)[C@H](CO)NC(=O)[C@H](CC(=O)O)NC(=O)[C@H](CC(C)C)NC(=O)[C@H](Cc1ccc(O)cc1)NC(=O)[C@H](CCCCN)NC(=O)[C@H](CO)NC(=O)[C@H](Cc1ccc(O)cc1)NC(=O)[C@H](CC(=O)O)NC(=O)[C@H](CO)NC(=O)[C@@H](NC(=O)[C@H](Cc1ccccc1)NC(=O)[C@@H](NC(=O)CNC(=O)[C@H](CCC(N)=O)NC(=O)[C@H](CO)NC(=O)[C@@H](N)Cc1c[nH]cn1)[C@@H](C)O)[C@@H](C)O)C(C)C)C(=O)N[C@@H](C)C(N)=O [ZP2668] (H-HSQGTFTSDYSKYLDSKAARDFVRWLKLA-NH2)
Lipolysis potency relative to OXM ([1]; primary adipocyte cultures): in the same order of magnitude as OXM

EC50 [1]: 4.6 nM
Molecule: CC(C)C[C@H](NC(=O)[C@H](CC(C)C)NC(=O)[C@H](Cc1c[nH]c2ccccc12)NC(=O)[C@H](CCC(=O)O)NC(=O)[C@@H](NC(=O)[C@H](Cc1ccccc1)NC(=O)[C@H](CC(=O)O)NC(=O)[C@H](Cc1c[nH]cn1)NC(=O)[C@H](C)NC(=O)[C@H](C)NC(=O)[C@H](CCCCN)NC(=O)[C@H](CO)NC(=O)[C@H](CC(=O)O)NC(=O)[C@H](CC(C)C)NC(=O)[C@H](Cc1ccc(O)cc1)NC(=O)[C@H](CCCCN)NC(=O)[C@H](CO)NC(=O)[C@H](Cc1ccc(O)cc1)NC(=O)[C@H](CC(=O)O)NC(=O)[C@H](CO)NC(=O)[C@@H](NC(=O)[C@H](Cc1ccccc1)NC(=O)[C@@H](NC(=O)CNC(=O)[C@H](CCC(N)=O)NC(=O)[C@H](CO)NC(=O)[C@@H](N)Cc1c[nH]cn1)[C@@H](C)O)[C@@H](C)O)C(C)C)C(=O)N[C@@H](CCCNC(=N)N)C(=O)N[C@@H](C)C(N)=O [ZP2669] (H-HSQGTFTSDYSKYLDSKAAHDFVEWLLRA-NH2)
Effect on HDL/LDL ratios [2]: significant compared to vehicle; also recorded: significant effect
Effect on blood concentration of LDL cholesterol [2]: significant compared to vehicle; also recorded: significant effect
Improvement of glucose tolerance (db/db mice; 15 min before oral glucose 1 g/kg, AUC0-240 min): 77.1%
Effect on oral glucose tolerance (db/db mice; diabetic db/db mice, result in words): significantly (P<0.01) improved glucose tolerance
Lipolysis potency relative to OXM ([1]; primary adipocyte cultures): 40 times
Lipolysis potency relative to glucagon ([1]; primary adipocyte cultures): equipotent with glucagon
Effect on food intake during the first hour (C57BI/6 mice): significantly (P<0.05) decreased food intake
Effect on body weight gain ([3]; 500 nmol/kg b.i.d. s.c., 28 days, high fat diet): decreased body weight gain to a level similar to that observed with chow feeding
Effect on fat deposition ([3]; 4 weeks treatment of DIO mice): significantly decreased fat deposition

Molecule: Exendin-4 [reference compound]
GLP-1R agonism (human GLP-1-R; result in words): very potent GLP-1R agonist
Effect on lipolysis ([1]; primary adipocyte cultures, result in words): no effect
Stimulation of lipolysis EC50 (nM) ([1]; primary rat adipocyte cultures, 60 min at 37° C.): No effect

Molecule: PYY(3-36): internal positive control in the food intake test, anorectic effect [reference compound]
Effect on food intake during the first hour (C57BI/6 mice): showed an anorectic effect
